The values that follow come from US6696491B2, “Treating irritable bowel syndrome or disease” (Meracol Corporation Limited, priority 2000, dated 2004).

The test system of assay [1] is Irritable Bowel Syndrome / chronic diarrhea. In words: Earlier conventional medication of the trial patients (patient history). It is filed as in vivo, human. The settings on record: for reduction of symptoms: Patient 3, IBS, tried over 40 years before the trial. As for the experimental part:
They were assessed by a gastroenterologist in 1989 and placed on long-term use of Imodium. This was given to reduce the number of bowel motions.
They also tried Colestid and was told to remain on this indefinitely to reduce their diarrhea.
Patient 3 was diagnosed with Irritable Bowel Syndrome, and over the next 40 years, tried many different medicines including Colestid sachets, Imodium, Codeine, cholestyramine, and Dicap. […] During this time, patient 3 has been admitted four times to a hospital for acute exacerbations of diarrhea.
Patient 4 has been diagnosed with irritable Bowel Syndrome for over a year and suffers from an extremely swollen abdomen with constant flatulence and diarrhea. Patient 4 has taken Mucilax, bran and has made major dietary alterations, all with no effect. Further effects of Irritable Bowel Syndrome to patient 4 included exhaustion, with the patient sleeping between 12-15 hours daily.

A further assay deals with IBS and/or IBD. Kind of assay: Trials with a variety of patients using dosage forms of cetyl myristate alone. It is filed as in vivo, human.
The conditions of assay [2]: laboratory experiments; website www.gcinutrients.com; cited from earlier work.

Turning to `COc1ccc2c3c1O[C@H]1[C@@H](O)C=C[C@H]4[C@@H](C2)N(C)CC[C@@]341` [Codeine], the reduction of symptoms entry in assay [1] is given as “none of the medicines listed were able to reduce the symptoms”.

With `CN(C)C(=O)C(CCN1CCC(O)(c2ccc(Cl)cc2)CC1)(c1ccccc1)c1ccccc1` [Imodium], the “reduction of the number of bowel motions” value in assay [1] (Patient 1, long-term use from 1989, before the trial) is “some benefits from this but they did not improve sufficiently”. In addition, the reduction of symptoms entry in assay [1] is recorded as “none of the medicines listed were able to reduce the symptoms”.

Turning to `CCCCCCCCCCCCCCCCOC(=O)CCCCCCCCCCCCC` [cetyl myristate], in the assay with IBS and/or IBD, the “relief from the symptoms of IBS and/or IBD” value is reported as “favorable responses”. For the same compound, the anti-arthritic activity result in assay [2] is “negligible”.

Turning to cholestyramine, in assay [1], the reduction of symptoms entry is listed as “none of the medicines listed were able to reduce the symptoms”.
